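These data come from cells grown in 96-well plates and exposed to compound for 48 hours at five concentrations. GI50 = concentration required for 50% inhibition of growth. TGI: concentration producing complete growth inhibition.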
Key:
Assay in all cases: NCI anticancer screen, dose series, 48 h
[1] = test system: CAKI-1 renal
[2] = test system: HOP-62 NSCLC
[3] = test system: KM12 colon
[4] = test system: MDA-MB-231 breast
[5] = test system: NCI-H522 lung
[6] = test system: NCI/ADR-RES ovarian
[7] = test system: SF-268 CNS
[8] = test system: SF-539 CNS

Row | SMILES | GI50 [1] [µM] | TGI [1] [µM] | GI50 [2] [µM] | TGI [2] [µM] | GI50 [3] [µM] | TGI [3] [µM] | GI50 [4] [µM] | TGI [4] [µM] | GI50 [5] [µM] | TGI [5] [µM] | GI50 [6] [µM] | TGI [6] [µM] | GI50 [7] [µM] | TGI [7] [µM] | GI50 [8] [µM] | TGI [8] [µM]
1 | COc1cc(-n2cc(-c3ccc(Cl)cc3)n(-c3ccccc3)c2=O)cc(OC)c1OC | 26.8 | > 89.9 | 44.3 | > 100 | 23.3 | > 100 | 16.4 | > 68.9 | 18.3 | > 76 | 21.5 | > 100 | 31.2 | > 100 | 27.1 | > 100
2 | CCCCCCOC(=O)CC1=C(C)/C(=C/c2[nH]c(-c3ccc[nH]3)cc2OC)N=C1C | 0.0706 | 1.12 | 0.0982 | 1.15 | 0.0535 | 1.4 | 0.0336 | 0.626 | 0.0506 | 1.12 | 0.135 | 1.33 | 0.0818 | 2 | 0.0635 | 1.27
3 | COc1cc(OC)c(C(=O)/C=C/c2ccc(C#N)cc2)c(OC)c1 | 1.73 | 8.78 | 1.44 | 4.24 | 1.58 | 6.55 | 2.31 | 9.32 | 1.04 | 2.92 | 1.4 | > 50 | 1.97 | 46.5 | 1.28 | 3.85
4 | Cn1cnc([N+](=O)[O-])c1S(=O)(=O)Oc1ccc(Cl)cc1 | 1.67 | 3.51 | 16.1 | 39 | 23 | 91.4 | 2.8 | 5.99 | 1.82 | 4.22 | 11.7 | 64.3 | 15.7 | 38.1 | 7.11 | 21
5 | COc1cc2c3c(n(CCCN=[N+]=[N-])c(=O)c2cc1OC)-c1ccccc1C3=O | 2.13 | 7.77 | 3.53 | 43.1 | > 100 | > 100 | > 100 | > 100 | 44.8 | > 100 | 4.59 | 75.2 | > 100 | > 100 | 4.73 | 22.8
6 | CCOC(=O)Cc1csc(NC(=O)C(OC(=O)c2ccc(Cl)cc2)c2ccccc2)n1 (configuration not stated) | 61.9 | > 100 | 44.1 | > 100 | 38.9 | > 100 | 31.7 | > 100 | 46 | > 100 | 41.1 | > 100 | 28.7 | > 100 | 25.3 | 54.8
7 | ClCc1ccccc1Cn1cnc2nc(Cl)nc(Cl)c21 | 7.16 | 18.5 | 2.35 | 4.4 | 5.93 | 24.2 | 0.219 | 0.642 | 2.94 | 7.17 | 1.07 | 3.96 | 0.379 | > 49.4 | 0.639 | 1.29

From PubChem BioAssay (NCI)
